This passage reports IC50 results from ChEMBL document CHEMBL4402590, “Small-Molecule Antagonist Targeting Exportin-1 via Rational Structure-Based Discovery” (J Med Chem, 2020).

Structures are written as SMILES.

This test has as its target Exportin-1 (Homo sapiens, UniProt O14980). As to the kind of experiment: Inhibition of nuclear CRM1 (unknown origin) by cell based assay.

Sequence of Exportin-1 (O14980 whole entry): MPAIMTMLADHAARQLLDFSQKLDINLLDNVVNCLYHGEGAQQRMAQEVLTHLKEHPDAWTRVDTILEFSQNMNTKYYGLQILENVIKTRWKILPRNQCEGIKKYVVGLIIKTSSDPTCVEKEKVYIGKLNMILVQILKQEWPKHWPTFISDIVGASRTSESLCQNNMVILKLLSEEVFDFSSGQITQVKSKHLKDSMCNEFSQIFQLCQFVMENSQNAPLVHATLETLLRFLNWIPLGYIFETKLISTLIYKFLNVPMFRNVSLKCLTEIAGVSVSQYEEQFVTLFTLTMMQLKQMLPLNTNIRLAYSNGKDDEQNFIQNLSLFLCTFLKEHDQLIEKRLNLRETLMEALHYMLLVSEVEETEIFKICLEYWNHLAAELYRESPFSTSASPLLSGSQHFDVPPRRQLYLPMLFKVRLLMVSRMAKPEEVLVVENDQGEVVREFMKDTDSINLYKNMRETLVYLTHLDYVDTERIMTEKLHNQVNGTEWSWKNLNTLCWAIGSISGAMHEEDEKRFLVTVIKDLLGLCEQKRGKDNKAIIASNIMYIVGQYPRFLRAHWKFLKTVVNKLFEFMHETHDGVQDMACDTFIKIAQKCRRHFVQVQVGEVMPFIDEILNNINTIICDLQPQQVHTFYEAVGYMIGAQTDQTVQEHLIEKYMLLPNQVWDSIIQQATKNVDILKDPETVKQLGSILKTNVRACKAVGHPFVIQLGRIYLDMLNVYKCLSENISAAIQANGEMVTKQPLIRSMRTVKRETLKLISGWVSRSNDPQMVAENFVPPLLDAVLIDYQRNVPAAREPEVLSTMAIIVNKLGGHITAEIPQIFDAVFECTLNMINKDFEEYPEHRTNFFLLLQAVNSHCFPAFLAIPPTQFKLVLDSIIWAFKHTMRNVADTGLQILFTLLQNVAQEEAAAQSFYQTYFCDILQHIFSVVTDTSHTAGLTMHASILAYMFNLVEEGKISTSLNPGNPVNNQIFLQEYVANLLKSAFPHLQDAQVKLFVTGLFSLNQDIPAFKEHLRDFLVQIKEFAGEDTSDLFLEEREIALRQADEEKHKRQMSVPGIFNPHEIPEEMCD

In the case of `[O-][S+](/C=C/CCN=C=S)c1ccccc1` (stereo unspecified), half-maximal inhibition (IC50) required 1500 nM.
